Data as given in PubChem BioAssay AID179 (DTP/NCI, 2004).
Activity calls are given as the source filed them.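 How the source made its calls: active means compounds giving half or more protection of infected cells from virus-caused growth loss, again on retest; inactive means the rest.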

System: CEM cells HIV-1 protection, formazan growth assay
Assay: NCI AIDS Antiviral Assay
Conditions: for IC50: measured here: growth of uninfected CEM cells
Outline: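 CEM (human) cells, HIV-1 infected vs uninfected, 5-point dosing, formazan growth read-out. Retest threshold 50% protection.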

| Compound | outcome | EC50 [µM] | IC50 [µM] |
| --- | --- | --- | --- |
| CC1(C)C(=O)/C=C\C(=O)C(C)(C)C(=O)/C=C\C(=O)C(C)(C)C2=CC=C(O2)C(C)(C)C(=O)/C=C\C1=O | inactive |  |  |
| Nc1c(S(=O)(=O)O)cc(S(=O)(=O)O)c2ccc(N=Nc3ccc(CCc4ccc(N=Nc5ccc6c(S(=O)(=O)O)cc(S(=O)(=O)O)c(N)c6c5O)cc4S(=O)(=O)O)c(S(=O)(=O)O)c3)c(O)c12 |  | 8.13 | 138 |
| Nc1cccc2c1C(=O)c1cccc(NC(=O)c3ccc4c5c(nsc35)-c3ccccc3C4=O)c1C2=O |  | > 15.5 | > 15.5 |
| c1cc2c(ncc3cscc32)s1 | inactive |  |  |
| CC(C)N1CC2CN(Cc3ccccc3)CC(C1)C2=O |  | > 479 | > 479 |
| C[C@@]1(O)C2CC3CC1(c1ccccc1)CC(/C3=N/O)/C2=N\O (some centres not stated) |  | > 200 | > 200 |
| COC(=O)C12CC(C3CC31)C1CC12 (configuration not stated) |  | > 251 | > 251 |
| Cc1cc2c(c(C)c1O)C(C)(C)CN2C(=O)C(C)(C)C |  | > 200 | 74.1 |
| Cc1cc(S(=O)(=O)Nc2nc(N)nc(N(C)C)n2)c(S)cc1Cl |  | > 182 | 166 |
| Cc1cc2c(c(=O)o1)C(=O)CC(C)O2 (configuration not stated) |  | > 776 | 117 |
| O=C(O)C1CC(c2ccc(F)cc2)=Nc2ccc(F)cc2S1 (configuration not stated) |  | > 200 | > 200 |
| CCOC(=O)c1cn(CC)c2cc3c(cc2c1=O)CCS3(=O)=O |  | > 200 | > 200 |
| N#C/C(=C\c1ccccc1)C(=O)c1ccccc1 |  | > 95.5 | > 95.5 |
| Nc1nc(-c2ccco2)cc(-c2ccco2)n1 |  | > 115 | > 115 |
| OC1C2CCCCN2C[C@@H](O)[C@H]1O (some centres not stated) |  | > 200 | > 200 |
| Cc1ccc(S(=O)(=O)N(/N=C/C=C/c2ccccc2)c2nnc(-c3ccccc3)c(-c3ccccc3)n2)cc1 |  | > 18.6 | 10 |
| CC(C)(C)C#C[P+](c1ccccc1)(c1ccccc1)c1ccccc1 |  | > 2 | 0.012 |
| CCOC(=O)C(=CNC(=S)Nc1ccccc1)C(=O)OCC |  | > 200 | > 200 |
| Cc1cc(O)c(C=NC(=S)c2ccncc2)c(=O)o1 |  | > 200 | > 200 |
| C[C@]12CCC(=O)C=C1CC[C@H]1[C@@H]3CC[C@@]4(OCC4=O)[C@@]3(C)C[C@H](O)[C@@]12F |  | > 123 | > 123 |
| CCOC(=O)NC(Nc1ncccn1)(C(=O)OCC)C(F)(F)F (configuration not stated) |  | > 200 | > 200 |
| COc1ncnc2c1ncn2C1CC(O)C(CO)(C(F)(F)F)O1 (configuration not stated) |  | > 200 | > 200 |

| Compound | outcome | EC50 [µM] | IC50 [µM] |
| --- | --- | --- | --- |
| Cc1nc2c(=O)n3c4c(cccc4c2o1)CCC3 |  | > 200 | 107 |
| CCC12CCCN(Cc3ccccc3)C1c1c(n(C)c3ccccc13)CC2 (configuration not stated) |  | > 66.1 | > 66.1 |
| O=[N+]([O-])c1ccc(C2N3CCCCC3[C@@H]3c4[nH]c5ccccc5c4CCN23)cc1 (some centres not stated) |  | > 34.7 | > 34.7 |
| Brc1ccc2c(-c3csc(-c4c[nH]c5ccccc45)n3)c[nH]c2c1 |  | > 200 | 10.7 |
| O=c1oc2ccccc2c(-c2ccc(O)cc2)c1Oc1ccc(Cl)cc1 | inactive |  |  |
| Cn1cnc([N+](=O)[O-])c1Sc1nc2cc(Cl)c(F)cc2[nH]1 |  | > 8.32 | 3.09 |
| C1COCCSC2=C(SCCO1)SC(=C1SC3=C(SCCOCCOCCS3)S1)S2 |  | > 17.8 | > 17.8 |
| O=C(CC1(O)C(=O)Nc2c(Cl)ccc(Cl)c21)c1ccc(F)cc1 (configuration not stated) |  | > 372 | 70.8 |
| CCOC(=O)Cc1csc2[n+]1C(=O)/C(=C/c1ccc(OC)c(OC)c1)S2 |  | > 200 | 20 |
| COc1ccc(C2CCC(Cl)(OC)CC2C=O)cc1 (configuration not stated) |  | > 245 | 155 |
| Cc1cc(-c2ccc(N=Nc3c(S(=O)(=O)O)cc4cccc(S(=O)(=O)O)c4c3O)c(C)c2)ccc1N=Nc1ccc2c(S(=O)(=O)O)ccc(N)c2c1O | inactive |  |  |
| COc1cc2cccc(N=Cc3ccccc3Cl)c2cc1OC |  | > 30.9 | > 30.9 |
| CC(=O)N[C@@H]1C(O)CN2C(=O)C(=O)O[C@H](C(O)CO)[C@@H]12 (some centres not stated) | inactive |  |  |
| Cc1ccc(S(=O)(=O)OCC23CCC(C2)C2CC23)cc1 (configuration not stated) |  | > 100 | > 100 |
| Clc1ccc2c(SCC3CO3)c3ccccc3nc2c1 (configuration not stated) |  | > 200 | 2.57 |
| Brc1ccccc1/C=C\C1(c2ccccc2)OCCO1 |  | > 200 | 4.37 |
| Cc1cccc(NC(=S)N=Nc2c(O)[nH]c3ccccc23)c1 |  | > 200 | 117 |
| CCOC(=O)C(=Cc1cccc(OC)c1)C(=O)OCC |  | > 129 | 14.8 |
| Fc1ccc2c3c([nH]c2c1)CCNC3 |  | > 200 | > 200 |
| N#C/C=C\c1ccc(Cl)cc1 |  | > 43.7 | > 43.7 |
| Cc1ccnc2[nH]c3ccccc3c(=O)c12 |  | > 200 | 14.5 |
| COc1ccc(/C=C/C(=O)/C=C/c2ccc(OC)cc2)cc1 |  | > 200 | 72.4 |

| Compound | outcome | EC50 [µM] | IC50 [µM] |
| --- | --- | --- | --- |
| Clc1ccc(-n2cccc2)cc1 |  | > 200 | > 200 |
| CCO/C=C1\N=C(C(Cl)c2ccccc2)OC1=O (configuration not stated) |  | > 135 | > 135 |
| Cn1c(=O)c2c(nc(N/N=c3\scc(-c4ccc(Cl)cc4)n3Cc3ccccc3)n2C)n(C)c1=O |  | > 200 | 10.7 |
| O=C1CNC(=O)c2ncn(C3OC(CO)C(O)C3O)c2N1 (configuration not stated) |  | > 240 | > 240 |
| C1CC2=C(C1)[Se]C(=C1Sc3nsnc3S1)[Se]2 |  | > 200 | 195 |
| NS(=O)(=O)c1ccc(NC2=CC(=O)C(=O)c3ccccc32)cc1 |  | > 30.2 | > 30.2 |
| O=[N+]([O-])/C(C(Cl)=C(Cl)Cl)=C(/Sc1ccccc1)N1CCOCC1 |  | > 200 | 2.63 |
| O=c1[nH]cnc2cccc(Cl)c12 |  | > 200 | > 200 |
| C=C1C(OC(=O)C(O)C(c2ccccc2)N(C)C)C[C@H](OC(C)=O)[C@]2(C)C1C(OC(C)=O)[C@@H]1CC(OC(C)=O)C(C)=C([C@@H](OC(C)=O)C2OC(C)=O)C1(C)C (some centres not stated) | inactive |  |  |
| COc1ccc(OC)c(N=Nc2cc(OC)c(N=Nc3c(O)c4ccccc4[nH]c3=O)cc2Cc2ccccc2C(=O)O)c1 |  | > 50.1 | 31.6 |
| CCCC(C)C[C@@H](C)CC(C)/C=C(\C)c1oc(=O)c(C)c(O)c1C (some centres not stated) (tested in a mixture with another compound) | inactive |  |  |
| [N-]=[N+]=Nc1c(Cc2ccccc2)c(Cl)nc2ccccc12 |  | > 200 | 19.1 |
| CC1CCCCC12C(C#N)(C#N)C2(C#N)C#N (configuration not stated) |  | > 20 | 9.55 |
| COC(=O)/C=C1\SC2(OC1=Nc1ccccc1)C1CC3CC(C1)CC2C3 (configuration not stated) |  | > 200 | > 200 |
| O=C(O)c1cc(=O)c2cc3c(cc2o1)OCc1ccccc1-3 |  | > 93.3 | > 93.3 |
| CC(=O)Oc1ccc(/C=C/C(=O)O[C@@H](C(=O)O)[C@@H](OC(=O)/C=C/c2ccc(OC(C)=O)c(OC(C)=O)c2)C(=O)O)cc1OC(C)=O |  | > 30.2 | > 30.2 |
| CCOC(=O)c1[nH]n(-c2ccccc2)c(=O)c1C=NC(=S)c1cccnc1 |  | > 200 | 89.1 |
| COC(=O)C1=CCC[C@H]2C1(C)CCC(C)C21CC(c2ccoc2)OC1=O (some centres not stated) |  | > 100 | 51.3 |
| Cc1ccc(C(CO)(CO)OC(CO)(CO)c2ccc(C)c(C)c2)cc1C |  | > 200 | > 200 |
| CCOC(=O)c1c(NC(=O)OC)c(C#N)c2n1CCCCC2 |  | > 200 | > 200 |
| C/C=N\n1c(C)c(C#N)c(C#N)c1N |  | > 200 | > 200 |
| COc1nc(OC)nc(Sc2ccc(Sc3ccc(Sc4nc(OC)nc(OC)n4)cc3)cc2)n1 |  | > 13.5 | > 13.5 |

| Compound | outcome | EC50 [µM] | IC50 [µM] |
| --- | --- | --- | --- |
| N=CN=CC(=S)O[C@@H]1C(=O)N2CCC[C@@]23CCCC[C@@H]13 |  | > 25.1 | > 25.1 |
| Cc1cn(C2CC(N=[N+]=[N-])C(COP(=O)(O)OCC3CCC(n4ccc(N)nc4=O)O3)O2)c(=O)[nH]c1=O (configuration not stated) |  | 0.0468 | 20 |
| O=C(O)c1ccc(CSc2ccc(Cl)cc2)cc1 |  | > 35.5 | > 35.5 |
| CC(C)NC(=O)NCCc1c[nH]c2ccccc12 |  | > 200 | > 200 |
| CN(C)CCCc1cccc2[nH]c3c(c12)CN(C)CC3 |  | > 200 | 126 |
| COc1cc(OC)c(OC)cc1/C=N/NC(=O)N/N=C/c1cc(OC)c(OC)cc1OC | inactive |  |  |
| Cc1ccc2c(c1)C(=O)N(N(C)C)CC(=O)N2 | inactive |  |  |
| COC1=CC2=CCC3C(CC[C@@]4(C)C3CC[C@@H]4C(C)=O)[C@@]2(C)CC1 (some centres not stated) |  | > 200 | 74.1 |
| COc1ccc(C2S/C(=C\c3cc(OC)c(OC)c(OC)c3)C(=O)N2NC(=O)Cc2ccccc2)cc1 (configuration not stated) |  | > 36.3 | > 36.3 |
| CN(C)c1ccc2c(c1)-c1cc(N(C)C)ccc1C2=CC=C1C(=O)NC(=O)NC1=O |  | > 3.39 | > 3.39 |
| Cc1cccc(C)c1NC(=S)/N=C\c1c(O)[nH]c(=O)[nH]c1=O |  | > 200 | > 200 |
| CN(C)CC1CCC/C(=C\c2ccc(Cl)c(Cl)c2)C1=O (configuration not stated) | inactive |  |  |
| CC(C)C(=O)NCC[C@@H](CNC(=O)OC(C)(C)C)NC(=O)OC(C)(C)C |  | > 200 | > 200 |
| Cn1c(=O)cc(NNc2ccccc2)[nH]c1=O |  | > 200 | 3.09 |
| C[n+]1c(-c2ccc(/C=N\Nc3ccnc(N/N=C/c4ccc(-c5cn6ccsc6[n+]5C)cc4)n3)cc2)cn2ccsc21 |  | > 41.7 | 28.8 |
| CCCCC[C@@H]1CCCC2C1CC[C@@H](CC/C=C/C(=O)OC)N2C(=O)OC(C)C(Cl)(Cl)Cl (some centres not stated) | inactive |  |  |
| O=C1C(Br)=C(Br)C(=O)c2ccc(=O)ccc21 |  | > 55 | 9.77 |
| O=C1CCC[C@]2(CCCC(=O)N2)C1 | inactive |  |  |
| CCOC(=O)c1nc2cc(C(F)(F)F)ccc2nc1Nc1ccc(F)cc1 |  | > 200 | 12.3 |
| CC(C)(C)OC(=O)NCC(CNC(=O)OC(C)(C)C)C(N)=O |  | > 407 | > 407 |
| COc1nc(N)nc2c1CSc1ccccc1-2 |  | > 77.6 | > 77.6 |
